EP1255553B1 (Stegram Pharmaceuticals Limited, priority 2000, dated 2001)
Entries after “also recorded” stand apart in the source; their conditions may differ. Like-named read-outs stand apart in the source and are kept apart here.

Experiments:
[1] = tested on: oestrogen receptor isoforms; assay: Isoelectric focusing (IEF) of 3H oestradiol binding to oestrogen receptor isoforms in tissue cytosol; parameters: species or system rat; conditions: Trilostane 10 micromolar, 3H oestradiol 5nM
[2] = tested on: rat uterine oestrogen receptors; assay: Scatchard analysis of tritiated oestradiol binding, rat uterus; conditions: Figure 2, Trilostane at 10micromolar
Experimental: (§1) Using tissue, snap frozen at time of excision, cytosols were prepared by dismembration using a Braun II Mikrodismembrator. Frozen tissue was minced and pulverised. The resultant powder was resuspended in 1-mm phosphate buffer containing 10% (v/v) glycerol, 1.5mm EDTA, 10mM monothioglycerol, 20mM Sodium molybdate, aprotinin (1ug/ml) and STI (1ug/ml) and phenyl methyl sulfonyl fluoride (30ug/ml) at pH 7.4 by stirring for 15 minutes at 4°C. This suspension was centrifuged at 100,000g for 1 hour at 4°C and the supernantant was used for competition analysis.
(§2) After overnight incubation at 4°C assay tubes were incubated with DCC as above to remove free steroid and aliquots of the resultant supernatant were incubated with toluene based scintillant and counted on a Scintillation Counter. Data obtained was analysed according to the method of Scatchard.

[3] = tested on: rat prostate oestrogen receptors; assay: Scatchard analysis of tritiated oestradiol binding, rat prostate; parameters: dose or concentration left out as unconfirmed; conditions: Figure 3
Experimental: as §1, §2

[4] = tested on: oestrogen receptor isoforms in rat uterus; assay: Tritiated tamoxifen binding to oestrogen receptor isoforms (IEF); conditions: Figure 5, test compound 10 micromolar, tritiated tamoxifen 10^-6M
Experimental: as §1
After overnight incubation free steroid was separated from bound by incubating with dextran coated charcoal (0.25% w/v charcoal, 0.025% w/v Dextran T70 in 10mM Tris 1.5mM EDTA at pH 7.4) for 10 mins at 4°C. The DCC was pelleted by centrifugation (10,000g for 10 mins) and aliquots of the supernatant were used for IEF separation.
Isoelectric focusing (IEF) gels were cast in slabs of size 125 x 260 mm and separation was conducted along either the short side (short run) or the long side (long run) of the gel. […]
After DCC extraction, aliquots (270ul) of the radioactive supernatant (3 mg protein/ml) derived from SSD assay were loaded near the cathode. […] After the run the gels were cut into 2.5 mm slices and each slice was incubated with 5ml scintillation cocktail for 24h at room temperature and radioactivity assayed.

[5] = tested on: oestrogen response element driven GFP gene in MCF-7 breast cancer cell line; assay: Oestrogen reporter plasmid xTG (GFP) transcriptional activity in MCF-7 cells; type: cell-based; conditions: compound at 10^-6M plus E2 at 10^-8M; MCF-7 transiently transfected with xTG for three days
Source text: XTG consists of a oestrogen response element. Upstream of a simple TATA promoter which together drive transcription of the GFP gene from the jellyfish Aequorea victoria. The xERE sequence is made up of the following - GGTCA CAG TGACC […] (SEQUENCE ID NO: 1)
The GFP gene - from GFPuv was supplied by Clontech (Clontech Laboratories, Inc., 1020 East Meadow Circle, Palo Alto, CA 94303-4230, USA)
E2 was used at a concentration of 10^-8M while all other compounds were used at 10^-6M. All ligands were added to cell media during transfection.

MCF-7 cells = assay: Thymidine labeling of MCF-7 cells; type: cell-based
Experimental: MCF-7 cells were plated out in multiwell dishes and grown for 24 hours in serum free medium (MEM). […] Radiolabelled thymidine was added to each well ([…]) and cells were then cultured for a further 24 hours. At the end of this period the medium was aspirated and the cultured cells were rinsed 3-times with cold buffer solution(50mm Tris-HCl, pH 7.4). The cells were then dissolved in 1ml of 0.1N NaOH and 0.5ml of this solution was mixed with 2.5ml of Scintillation cocktail and the intracellular radioactivity of ^3H was measured with a liquid scintillation counter.

[6] = advanced breast cancer, cited from earlier work
[7] = molecular target: oestrogen receptor present in MCF-7 breast cancer cell extracts / oestrogen response element (Homo sapiens, UniProt P03372); assay: Electrophoretic mobility shift assay (EMSA) of ER-ERE complex formation in extracts of treated MCF-7 cells; type: cell-based; conditions: MCF7, 24 h, read-out: ER-ERE complex formation
Chain of oestrogen receptor present in MCF-7 breast cancer cell extracts / oestrogen response element (P03372 whole entry): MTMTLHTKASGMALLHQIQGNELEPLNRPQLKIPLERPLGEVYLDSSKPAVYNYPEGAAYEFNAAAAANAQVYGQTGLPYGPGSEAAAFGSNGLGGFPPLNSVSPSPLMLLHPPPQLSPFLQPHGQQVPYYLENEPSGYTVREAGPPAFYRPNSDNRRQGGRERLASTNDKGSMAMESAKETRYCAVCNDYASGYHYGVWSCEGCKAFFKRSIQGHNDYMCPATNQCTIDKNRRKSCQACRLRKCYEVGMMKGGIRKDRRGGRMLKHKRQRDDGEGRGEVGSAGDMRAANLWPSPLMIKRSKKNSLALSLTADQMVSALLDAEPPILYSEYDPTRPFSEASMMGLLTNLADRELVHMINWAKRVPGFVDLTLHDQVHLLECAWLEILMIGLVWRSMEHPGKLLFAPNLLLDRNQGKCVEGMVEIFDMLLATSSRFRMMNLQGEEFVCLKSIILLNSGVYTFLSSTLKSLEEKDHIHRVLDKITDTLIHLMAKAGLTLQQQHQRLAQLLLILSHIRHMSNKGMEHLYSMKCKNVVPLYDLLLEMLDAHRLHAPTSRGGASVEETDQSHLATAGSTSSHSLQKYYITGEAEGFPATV

[8] = cited from earlier work

C[C@]12CC[C@H]3[C@@H](CC[C@@]45O[C@@H]4C(O)=C(C#N)C[C@]35C)[C@@H]1CC[C@@H]2O [Trilostane, (4α,5α-17β)-4,5-epoxy-3,17-dihydroxyandrost-2-ene-2carbonitrile]
binding of oestrogen onto the oestrogen receptor isoforms [1]: modulated the binding of oestrogen onto all the oestrogen receptor isoforms but principally onto the pI 6.3 isoform
concentration of total receptor (X axis intercept of Scatchard plot) [2]: increases the apparent affinity of oestrogen binding (given by the slope of the regression lines) and the concentration of total receptor
concentration of total receptor (x axis intercept of Scatchard plot) [3]: increases the concentration of total receptor; also recorded: an increase in receptor concentration
tritiated tamoxifen binding to oestrogen receptor isoforms [4]: increased tritiated tamoxifen binding to oestrogen receptor isoforms
E2-driven transactivation / transcription of GFP [5]: reduced transcription of GFP
blocking of the oestradiol-induced increase in thymidine labeling (MCF-7 cells; E2+T: Oestradiol 10^-8 M and Trilostane 10µM, 24 hours): completely blocked
inhibition at 10 µM (MCF-7 cells; Homo sapiens, MCF7, 24 h, read-out: inhibition of thymidine uptake of MCF-7 cells compared with control): 31%
response rate ([6]; Ingle J.N. et al 1990): 38%
response rate ([6]; Williams C.J. et al 1993): 29%

C[C@]12CC[C@H]3[C@@H](CC[C@@]45O[C@@H]4C(=O)[C@H](C#N)C[C@]35C)[C@@H]1CCC2=O [keto-trilostane]
tritiated tamoxifen binding to oestrogen receptor isoforms [4]: increased tritiated tamoxifen binding to oestrogen receptor isoforms
activity at 10 µM [7]: 68%

C[C@]12CC[C@@H]3c4ccc(O)cc4CC[C@H]3[C@@H]1CC[C@@H]2O [oestradiol]
activation at 0.01 µM (MCF-7 cells; Homo sapiens, MCF7, 24 h, read-out: increase in thymidine labeling compared to control): 15%

O=C(c1ccc(OCCN2CCCCC2)cc1)c1c(-c2ccc(O)cc2)sc2cc(O)ccc12 [raloxifene]
E2-driven transactivation / transcription of GFP [5]: reduced E2-driven transactivation

CC/C(=C(\c1ccccc1)c1ccc(OCCN(C)C)cc1)c1ccccc1 [tamoxifen]
E2-driven transactivation / transcription of GFP [5]: reduced E2-driven transactivation
reduction of the risk of invasive breast cancer ([8]; all women, two-sided P<.00001): 49%
occurrence of oestrogen receptor-negative tumors ([8]; in vivo): no difference
reduction of the occurrence of oestrogen receptor-positive tumors ([8]; in vivo): 69%
cumulative incidence of invasive breast cancer ([8]; through 69 months of follow-up, tamoxifen group): 22.0 per 1000 women
reduction of the risk of noninvasive breast cancer ([8]; two-sided P<.002): 50%
decreased risk of invasive breast cancer ([8]; women aged 49 years or younger): 44%
decreased risk of invasive breast cancer ([8]; women aged 50-59 years): 51%
decreased risk of invasive breast cancer ([8]; women aged 60 years or older): 55%
decreased risk of invasive breast cancer ([8]; women with a history of atypical breast hyperplasia): 86%
decreased risk of invasive breast cancer ([8]; women with a history of breast lobular carcinoma in situ): 56%
